# Laboratory results taken from publication PMC6972920, “Structure-based development of caged dopamine D2/D3 receptor antagonists” (Scientific Reports, 2020).
# “Also recorded” adds a separate entry of the source.
# Legend:
# [1] = molecular target: human dopamine receptor subtype D2L (Homo sapiens, UniProt P14416); test: Radioligand displacement, [3H]spiperone, CHO cell membranes; format: binding; conditions: [3H]spiperone; mean ± SEM of 4-9 experiments; compounds 1, 2, 3: ± SD of two experiments; read-out: Ki value D2L
# Chain of human dopamine receptor subtype D2L (P14416 whole entry): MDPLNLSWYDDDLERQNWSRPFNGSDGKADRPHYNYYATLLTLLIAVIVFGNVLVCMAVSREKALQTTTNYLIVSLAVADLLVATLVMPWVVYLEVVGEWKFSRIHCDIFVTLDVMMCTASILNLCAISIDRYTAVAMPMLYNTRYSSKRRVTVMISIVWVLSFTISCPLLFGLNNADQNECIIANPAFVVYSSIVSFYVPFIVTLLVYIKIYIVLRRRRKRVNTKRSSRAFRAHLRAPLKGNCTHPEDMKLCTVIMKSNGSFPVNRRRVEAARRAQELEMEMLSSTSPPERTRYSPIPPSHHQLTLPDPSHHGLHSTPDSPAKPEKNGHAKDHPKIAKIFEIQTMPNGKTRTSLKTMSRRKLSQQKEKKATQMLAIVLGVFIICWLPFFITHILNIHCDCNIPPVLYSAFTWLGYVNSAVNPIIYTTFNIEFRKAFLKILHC
# [2] = molecular target: human dopamine receptor subtype D2S (Homo sapiens, UniProt P14416); test: as above; format: binding; conditions: [3H]spiperone; mean ± SEM of 4-9 experiments; compounds 1, 2, 3: ± SD of two experiments; read-out: Ki value D2S
# Chain of human dopamine receptor subtype D2S (P14416 1-414 isoform P14416-2): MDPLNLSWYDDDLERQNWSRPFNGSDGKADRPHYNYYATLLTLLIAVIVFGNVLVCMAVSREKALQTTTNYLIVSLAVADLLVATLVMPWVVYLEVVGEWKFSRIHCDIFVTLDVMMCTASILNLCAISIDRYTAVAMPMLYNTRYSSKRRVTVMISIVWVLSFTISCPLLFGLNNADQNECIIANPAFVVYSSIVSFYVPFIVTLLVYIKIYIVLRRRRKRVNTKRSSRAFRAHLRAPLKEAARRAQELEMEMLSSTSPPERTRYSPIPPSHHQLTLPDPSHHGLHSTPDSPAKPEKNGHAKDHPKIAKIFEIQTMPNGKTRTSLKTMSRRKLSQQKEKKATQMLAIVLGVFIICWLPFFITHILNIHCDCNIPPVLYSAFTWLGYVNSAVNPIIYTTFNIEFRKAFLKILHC
# [3] = molecular target: human dopamine receptor subtype D3 (Homo sapiens, UniProt P35462); test: as above; format: binding; conditions: mean ± SEM of 4-9 experiments, compounds 1, 2, 3: ± SD of two experiments
# Chain of human dopamine receptor subtype D3 (P35462 whole entry): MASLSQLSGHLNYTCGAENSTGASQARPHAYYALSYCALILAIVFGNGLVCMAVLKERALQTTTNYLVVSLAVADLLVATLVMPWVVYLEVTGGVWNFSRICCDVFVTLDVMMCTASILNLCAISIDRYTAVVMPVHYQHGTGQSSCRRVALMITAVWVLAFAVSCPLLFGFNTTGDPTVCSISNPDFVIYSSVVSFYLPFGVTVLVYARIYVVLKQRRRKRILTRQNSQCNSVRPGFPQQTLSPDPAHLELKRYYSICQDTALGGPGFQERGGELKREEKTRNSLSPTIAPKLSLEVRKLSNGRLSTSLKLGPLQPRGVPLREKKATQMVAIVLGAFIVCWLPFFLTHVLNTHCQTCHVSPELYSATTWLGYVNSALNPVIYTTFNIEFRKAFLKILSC
# [4] = molecular target: T1, dopamine D2S receptor co-expressed with hybrid Gαqi in HEK293T cells (Homo sapiens, UniProt P14416); test: IP accumulation assay (IP-One HTRF), agonist / inverse agonist effect; format: cell-based; conditions: for functional properties in IP accumulation assay (in words): D2S receptors; for Emax: HEK-293T, relative to full effect of quinpirole (100%) and buffer (0%); for EC50: IP accumulation, ± SEM, 3-8 experiments, negative Emax = inverse agonist effect
# T1 construct: expressed in transfected cells; host or cells: HEK-293T cells, transient co-transfection
# T1 sequence (P14416 1-414 isoform P14416-2): as the sequence (P14416 1-414 isoform P14416-2) above
# [5] = molecular target: T1, dopamine D2S receptor co-expressed with hybrid Gαqi in HEK293T cells; test: IP accumulation assay (IP-One HTRF), inhibition of 10 nM quinpirole; format: cell-based; conditions: for Emax: HEK-293T, in presence of 10 nM quinpirole, relative to quinpirole (100%) and buffer (0%), read-out: inhibitory effect Emax; for IC50: blocking of the agonist effect of 10 nM quinpirole, ± SEM, 4-6 experiments, read-out: inhibitory effect IC50
# [6] = molecular target: T2, D2S receptor (HEK293T cells co-transfected with D2S and Gαqi) (Homo sapiens, UniProt P14416); test: Illumination experiment: test compound solution irradiated at 365 nm before addition to cells, quinpirole stimulated IP accumulation; format: cell-based; conditions: for irradiation time after which no quinpirole activity could be observed / agonist effect of quinpirole remaining after 2 seconds of irradiation: 50 nM caged compound, 365 nm; for irradiation time for complete release (uncaging) of dechloroeticlopride: 50 nM, irradiation at 365 nm, solution irradiated before addition to cells
# T2 construct: expressed in transfected cells; host or cells: HEK-293T cells, transient co-transfection
# T2 sequence (P14416 1-414 isoform P14416-2): as above
# Source text: (§1) […]. Mean curves ± SEM of 4–9 individual curves each done in triplicates. […]. Mean curves from 3–4 experiments each done in duplicate. […]. While 4 (MG307) (green bars) is completely released after 10 sec, the uncaging of 5 (red bars) needs 20 sec. […]. Mean bars ± SEM derived from 3–11 individual experiments each done in quintuplicates. Irradiation with a solution of test compound before addition to the cellular test system. […]. Means ± SEM from 6 experiments in quintuplicates.
# (§2) […]. Actually, we observed an onset of a strong inverse agonist effect on quinpirole-induced IP accumulation after irradiation of the nitrobenzyl-caged compound 4 (MG307). […] […]. […] To complement uncaging of the test compounds by irradiation of the test compounds before addition to receptor by a biologically more significant experiment, we investigated whether uncaging can also be accomplished directly in the cellular system. […] In fact, quinpirole-promoted IP accumulation was substantially attenuated after irradiation for 10 or 20 sec. […] […]. […] […].
# HEK293T cells were transiently co-transfected with D2S and Gαqi. Solutions of the test compounds were irradiated at λ = 365 nm using the same LED as for the photochemistry experiments (see above) for 2, 5, 10 or 20 sec and the test compound was added to the cell system immediately after illumination. […]. Accumulation of IP was determined as described above. […]. Basal activity (buffer) was set as 0%. As a control, quinpirole was irradiated for 20 sec without observing any difference to the effect of the untreated analog. […]. All irradiation experiments were carried out in the dark or under dim light.
# [7] = molecular target: T2, D2S receptor (HEK293T cells co-transfected with D2S and Gαqi); test: Photoactivation by direct irradiation of the cellular test system, quinpirole mediated IP accumulation; format: cell-based; conditions: buffer and compound irradiated at 365 nm for 10 or 20 sec
# Source text: as §1, §2
# HEK293T cells were transiently co-transfected with D2S and Gαqi. Solutions of the test compounds were irradiated at λ = 365 nm using the same LED as for the photochemistry experiments (see above) for 2, 5, 10 or 20 sec and the test compound was added to the cell system immediately after illumination. […]. Accumulation of IP was determined as described above. […]. […]
# [8] = Compound stability and photolysis in aqueous buffer monitored by HPLC; format: physicochemical; conditions: for behaviour upon illumination with λp = 365 nm (in words): aqueous buffer, LED 365 nm, HPLC; for stability in the absence of light (in words): dark, storage and solution, HPLC/LCMS; for remaining fraction of the initial concentration: incubation in aqueous buffer at ambient light for 1 h
# Method: All measurements were performed in aqueous buffer solution. Compound stability and photolysis was monitored by HPLC. […] Excitation of NB- and DMNB-type cages to trigger photolysis is usually performed with light of 300–400 nm. This absorption profile may limit the wavelength range for cage photolysis, as simultaneous excitation of the core pharmacophore may trigger photolytic degradation of the desired product. We performed photolysis experiments using a near UV light-emitting diode (LED) light source with a peak wavelength of λp = 365 nm and a spectrum half width of Δλ = 9 nm.
# No unspecific degradation of the pharmacophore was observed, resulting in constant concentration of the desired product. […] The exposure to ambient light for longer time led to partial photolytic degradation. After incubation in aqueous buffer at ambient light for 1 h, we detected remaining 51% and 62% of the initial concentrations of 4 (MG307) and 5, respectively.
# For compound characterization, UV/Vis absorption spectra of samples with c = 0.1 mM in methanol were measured on an Analytik Jena Specord 200 Plus spectrometer (λ = 210–400 nm). Irradiation experiments to trigger photolysis were performed in open HPLC glass vials using a LED (λ = 365 nm, 4.5 V, 0.7 A) to irradiate the samples from top. An aqueous buffer solution served as solvent (50 mM Tris, 1 mM EDTA, 50 mM MgCl2, 100 µg/ml bacitracin, 5 µg/ml soybean trypsin inhibitor), with initial sample concentrations of […] and sample volumes of 100 µl. Photolysis was monitored by HPLC as specified before (eluent system 1). […] Unless specified differently, all experiments were performed in triplicate.
# [9] = Quantum yield determination of uncaging (365 nm LED); format: physicochemical; conditions: for quantum yield φ for photolytic liberation of dechloroeticlopride: 365 nm; for quantum yield ϕ: 0.1 mM in aqueous buffer; for quantum yield ϕ / yield of liberated dechloroeticlopride: 365 nm LED
# Method: Quantum yield determination. Quantum yields were determined in the following setup: translation stages (horizontal and vertical): Thorlabs DT 25/M or DT S25/M; photographic lens with f = 50 mm; magnetic stirrer: Faulhaber motor (1524B024S R) with 14:1 gear (15A); PS19Q power sensor from Coherent; PowerMax software; adjustable power supply “Basetech BT-153 0-15 V/DC 0-3 A 45 W” [2].
# Measurements were performed in a covered apparatus to minimize the influence of ambient light. A 10 mm Hellma® quartz fluorescence cuvette with solvent (aqueous buffer solution, 2 ml) and a stirring bar was placed in the beam of a 365 nm LED and the transmitted power (Pref = 4.40 mW) was measured by a calibrated photodiode horizontal to the cuvette. The content of the cuvette was changed to a 0.1 mM solution of the respective caged compound in aqueous buffer (2 ml) with a stirring bar. The transmitted power was measured analogously to the blank solution. The sample was further irradiated and the transmitted power as well as the respective yield of liberated benzamide dechloroeticlopride was recorded after different times. The quantum yield was then calculated with the following […]
# ϕ = N௉ = c௉ ∙ V ∙N஺ ∙ h ∙c
# ϕ = quantum yield h = Planck constant
# N௉ = number of product molecules formed c = speed of light
# N௉௛.௔௕௦. = number of absorbed photons P௔௕௦. = radiant power absorbed
# c௉ = product concentration ∆t = irradiation time
# V = sample volume λ = irradiation wavelength […]
# entry compound irradiation time Pabs. yield ϕ
Ki [1] [nM],Ki [2] [nM],Ki [3] [nM],Emax [4] [%],EC50 [4] [nM],Emax [5] [%],IC50 [5] [nM],irradiation time after which no quinpirole activity could be observed ([6]; 10 nM quinpirole) [s],agonist effect of quinpirole remaining after 2 seconds of irradiation ([6]; 10 nM quinpirole),irradiation time for complete release (uncaging) of dechloroeticlopride [6] [s],remaining D2S promoted signalling (IP accumulation) after irradiation in the cellular system [7],remaining fraction of the initial concentration [8] [%],quantum yield φ for photolytic liberation of dechloroeticlopride [9] [%],quantum yield ϕ ([9]; irradiation time 10 min) [%],yield of liberated dechloroeticlopride ([9]; irradiation time 10 min) [%],quantum yield ϕ ([9]; irradiation time 30 min) [%],yield of liberated dechloroeticlopride ([9]; irradiation time 30 min) [%],SMILES,functional properties in IP accumulation assay (in words) [4],behaviour upon illumination with λp = 365 nm (in words) [8],stability in the absence of light (in words) [8],other results
210 ± 18,220 ± 66,200 ± 62,-21 ± 3.3,220 ± 65,-29 ± 5.6,850 ± 210,10,less than 30%,10,< 5%,51,0.5,2.9,11,1.2,16,"CCc1ccc(OC)c(C(=O)NC[C@@H]2CCCN2CC)c1OCc1ccccc1[N+](=O)[O-] [compound 4, (S)-3-Ethyl-N-[(1-ethylpyrrolidin-2-yl)methyl]-6-methoxy-2-[(2-nitrobenzyl)oxy]benzamide]","inverse agonist properties were observed as well, but potency was low",fast conversion to dechloroeticlopride within a few seconds,stable under storage conditions and in solution for at least two days,behaviour upon illumination with λp = 365 nm (in words) ([8]; listed as 4 (MG307)): clean photolysis
350 ± 47,160 ± 35,140 ± 33,-21 ± 5.5,280 ± 120,-28 ± 4.6,990 ± 230,20,less than 30%,20,about 35%,62,2.1,0.7,17,0.3,22,CCc1ccc(OC)c(C(=O)NC[C@@H]2CCCN2CC)c1OCc1cc(OC)c(OC)cc1[N+](=O)[O-] [compound 5],"inverse agonist properties were observed as well, but potency was low",fast conversion to dechloroeticlopride within a few seconds; also recorded: clean photolysis,stable under storage conditions and in solution for at least two days,
2.4 ± 0.44,1.2 ± 0.21,,-17 ± 2.5,5.2 ± 0.8,-20 ± 2.1,9.6,,,,,,,,,,,"CCc1ccc(OC)c(C(=O)NC[C@@H]2CCCN2CC)c1O [dechloroeticlopride, (S)-3-Ethyl-N-[(1-ethylpyrrolidin-2-yl)methyl]-2-hydroxy-6-methoxybenzamide, reference compound]",specific antagonist / inverse agonist,more photostable; also recorded: no significant decomposition,,"effect of irradiation at 365 nm for 20 sec on the compound's effect on IP accumulation (in words) ([6]; controls, 10 nM quinpirole): does not affect"
